In the CombiSolv-Exp solvation set (Vermeire and Green 2021):

Assay: solvent given as SMILES

CCCCCC
Conditions	solvation free energy, 298 K [kcal/mol]
in BrC(Br)C(Br)Br	-2.72
in Brc1cccc2ccccc12	-3.07
in Brc1ccccc1	-3.65
in C1=Cc2ccccc2C1	-3.49
in C1CCC(C2CCCCC2)CC1	-3.73
in C1CCCCC1	-4.06
in C1CCOC1	-3.9
in C1COCCO1	-3.22
in C=CCCCC	-4.02
in C=CCCCCCC	-3.93
in C=CCCCCCCCC	-3.92
in C=CCCCCCCCCCCCCCC	-3.59
in CC1CCS(=O)(=O)C1	-2.13
in CC1COC(=O)O1	-2.04
in CC#N	-2.63
in CC(=O)CC(C)C	-3.59
in CC(=O)N(C)C	-2.76
in CC(=O)O	-2.89
in CC(=O)OCc1ccccc1	-3.02
in CC(=O)c1ccccc1	-3.04
in CC(C)(C)Cl	-4
in CC(C)(C)O	-3.33
in CC(C)=O	-3.26
in CC(C)CCCC(C)CCCC(C)CCCCC(C)CCCC(C)CCCC(C)C	-3.47
in CC(C)CCO	-3.31
in CC(C)CCl	-3.94
in CC(C)CO	-3.36
in CC(C)O	-3.21
in CC(C)OC(C)C	-3.98
in CC(O)CO	-1.94
in CCBr	-4.08
in CCC#N	-3.13
in CCC(C)(C)C	-4.04
in CCC(C)(C)OC	-3.92
in CCC(C)=O	-3.44
in CCC(C)Cl	-3.98
in CCCC#N	-3.07
in CCCC(=O)OCC	-3.64
in CCCC(C)=O	-3.52
in CCCCC	-4.11
in CCCCC#N	-3.27
in CCCCC(CC)COC(=O)CCCCC(=O)OCC(CC)CCCC	-3.33
in CCCCC(CC)COC(=O)c1ccccc1C(=O)OCC(CC)CCCC	-3.13
in CCCCCC#N	-3.28
in CCCCCC(C)=O	-3.54
in CCCCCCC	-3.97
in CCCCCCCC	-3.92
in CCCCCCCCC	-3.86
in CCCCCCCCC=CCCCCCCCC(=O)OCC(COC(=O)CCCCCCCC=CCCCCCCCC)OC(=O)CCCCCCCC=CCCCCCCCC	-3.45
in CCCCCCCCCC	-3.83
in CCCCCCCCCCCC	-3.73
in CCCCCCCCCCCCCC	-3.6
in CCCCCCCCCCCCCCCC	-3.64
in CCCCCCCCCCCCO	-3.31
in CCCCCCCCCOC(=O)c1ccccc1C(=O)OCCCCCCCCC	-3.23
in CCCCCCCCN(CCCCCCCC)CCCCCCCC	-3.49
in CCCCCCCCO	-3.36
in CCCCCCCO	-3.33
in CCCCCCO	-3.39
in CCCCCCOC(C)=O	-3.61
in CCCCCN(CCCCC)CCCCC	-3.67
in CCCCCO	-3.33
in CCCCCl	-3.91
in CCCCN(C=O)CCCC	-3.25
in CCCCN(CCCC)CCCC	-3.6
in CCCCO	-3.32
in CCCCOC(=O)c1ccccc1C(=O)OCCCC	-3.24
in CCCCOC(C)=O	-3.59
in CCCCOCCCC	-3.87
in CCCO	-3.16
in CCN1CCCC1=O	-2.88
in CCN(CC)C(C)=O	-3.11
in CCN(CC)CC	-4.01
in CCNC(C)=O	-2.92
in CCNC=O	-2.69
in CCO	-3.1
in CCOC(=O)c1ccccc1C(=O)OCC	-2.73
in CCOC(C)(C)C	-3.93
in CCOC(C)=O	-3.46
in CCOCC	-3.99
in CCOCCO	-2.96
in CCOCCOCCOCC	-3.42
in CCOc1ccccc1	-3.49
in CN1CCCC1=O	-2.65
in CN1CCCCC1=O	-2.78
in CN1CCN(C)C1=O	-2.51
in CN(C)C=O	-2.62
in CN(C)P(=O)(N(C)C)N(C)C	-2.98
in CNC(C)=O	-2.74
in CNC=O	-2.36
in CO	-2.82
in COC(C)(C)C	-4.01
in COC(C)=O	-3.3
in COCCO	-2.7
in COCCOCCOCCOCCOC	-2.82
in COc1ccccc1	-3.41
in CS(C)=O	-1.83
in Cc1ccc(C)cc1	-3.87
in Cc1cccc2ccccc12	-3.36
in Cc1cccc(C)c1	-3.85
in Cc1cccc(O)c1	-2.91
in Cc1ccccc1	-3.87
in Cc1ccccn1	-3.5
in ClC(Cl)(Cl)Cl	-4.08
in ClC(Cl)C(Cl)Cl	-3.35
in ClC(Cl)Cl	-3.94
in ClCCCl	-3.45
in ClCCl	-3.75
in Clc1cccc2ccccc12	-3.23
in Clc1ccccc1	-3.85
in FC(F)(F)C(F)(F)C(F)(F)C(F)(F)C(F)(F)C(F)(F)C(F)(F)C(F)(F)F	-2.53
in FC(F)(F)C(F)(F)C(F)(F)C(F)(F)C(F)(F)C(F)(F)F	-2.67
in Fc1ccccc1	-3.88
in ICI	-2.2
in N#CCCCC#N	-1.5
in N#CCCCCC#N	-1.86
in N#CCCO	-1.84
in N#CCCOCCC#N	-0.89
in N#CCc1ccccc1	-2.62
in N#Cc1ccccc1	-3.13
in NC=O	-0.53
in NCCN	-1.85
in NCCO	-0.77
in NCc1ccccc1	-2.92
in Nc1ccccc1	-2.36
in O=C1CCCCC1	-3.37
in O=C1CCCO1	-2.22
in O=C(O)C(Cl)Cl	-2.74
in O=CN1CCOCC1	-1.98
in O=Cc1ccco1	-2.37
in O=S=O	-3.18
in OC1CCCCC1	-3.1
in OCC1CCCO1	-2.62
in OCCCCCO	-2.03
in OCCCCO	-1.88
in OCCCO	-1.54
in OCCCl	-2.22
in OCCOCCO	-1.43
in OCCOCCOCCO	-1.54
in OCCOCCOCCOCCO	-1.65
in OCCS	-1.9
in OCCc1ccccc1	-2.75
in OCc1ccccc1	-2.66
in OCc1ccco1	-2.27
in S=C=S	-4.03
in c1ccc2c(c1)CCCC2	-3.65
in c1ccc2ncccc2c1	-3.1
in c1ccc(C2CCCCC2)cc1	-3.62
in c1ccccc1	-3.84
in c1ccncc1	-3.27
